± gives the standard deviation of the averaged measurements.
Test: TIMS collisional cross section (CCS, N2) of the lipid ion; higher = larger ion cross section
Details: sample type: HeLa; ionization mode: positive; one isomer drawn
Description: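 Lipid extracts of human plasma (NIST SRM 1950), mouse liver and HeLa cells were separated by nanoflow C18 LC (30 min gradient, 60 °C) and analysed by TIMS-PASEF on a timsTOF Pro in positive ion mode. Ion mobility was calibrated with the Agilent tuning mix and converted to collisional cross sections (Mason–Schamp) in N2 drift gas. Lipids were identified by MS/MS (SimLipid) and manual curation. SMILES are LIPID MAPS representative structures for the annotated lipid.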

Row | Compound | TIMS collisional cross section
1 | CCCCCCCC/C=C\CCCCCCCC(=O)O[C@@H](CO)COC(=O)CCCCCCCCCCCCCCCC [DG 17:0_18:1_0:0] (ion (formula + adduct): [C38H72O5+NH4] 1+) | 265.7 Å²
2 | CCCCCCCCCCCCCCCCCC(=O)OCC(CO)OC(=O)CCCCCCCCCCCCCCCCC (configuration not stated) [DG 18:0_18:0_0:0] (ion (formula + adduct): [C39H76O5+NH4] 1+) | 272.2 Å²
3 | CCCCC/C=C\C/C=C\C/C=C\C/C=C\CCCC(=O)O[C@@H](CO)COC(=O)CCCCCCCCCCCCCCCCC [DG 18:0_20:4_0:0] (ion (formula + adduct): [C41H72O5+NH4] 1+) | 270.8 Å²

Results, then the compound that gave them:

Row | TIMS collisional cross section | Compound
4 | 257.7 Å² | CCCCCC/C=C/CCCCCCCCCC(=O)OC[C@H](CO)OC(=O)CCCCCCCCCCCCCCC [DG 18:1_16:0_0:0] (ion (formula + adduct): [C37H70O5+H] 1+)
5 | 262.87 ± 0.64 Å² | CCCCCC/C=C/CCCCCCCCCC(=O)OC[C@H](CO)OC(=O)CCCCCCCCCCCCCCC [DG 18:1_16:0_0:0] (ion (formula + adduct): [C37H70O5+NH4] 1+)
6 | 265.2 Å² | CCCCCCCC/C=C\CCCCCCCC(=O)OC[C@H](CO)OC(=O)CCCCCCC/C=C\CCCCCCCC [DG 18:1_18:1_0:0] (ion (formula + adduct): [C39H72O5+NH4] 1+)
7 | 261.1 Å² | CCCCC/C=C\C/C=C\CCCCCCCC(=O)O[C@@H](CO)COC(=O)CCCCCCC/C=C\CCCCCCCC [DG 18:1_18:2_0:0] (ion (formula + adduct): [C39H70O5+NH4] 1+)
8 | 258.6 Å² | CC/C=C\C/C=C\C/C=C\CCCCCCCC(=O)O[C@@H](CO)COC(=O)CCCCCCC/C=C\CCCCCCCC [DG 18:1_18:3_0:0] (ion (formula + adduct): [C39H68O5+NH4] 1+)
9 | 266.8 Å² | CCCCC/C=C\C/C=C\C/C=C\CCCCCCC(=O)O[C@@H](CO)COC(=O)CCCCCCC/C=C\CCCCCCCC [DG 18:1_20:3_0:0] (ion (formula + adduct): [C41H72O5+NH4] 1+)
10 | 263.8 Å² | CC/C=C\C/C=C\C/C=C\C/C=C\C/C=C\CCCC(=O)O[C@@H](CO)COC(=O)CCCCCCC/C=C\CCCCCCCC [DG 18:1_20:5_0:0] (ion (formula + adduct): [C41H68O5+NH4] 1+)
11 | 270 Å² | CC/C=C\C/C=C\C/C=C\C/C=C\C/C=C\C/C=C\CCC(=O)O[C@@H](CO)COC(=O)CCCCCCC/C=C\CCCCCCCC [DG 18:1_22:6_0:0] (ion (formula + adduct): [C43H70O5+NH4] 1+)
12 | 261.1 Å² | CCCCCC/C=C\CCCCCCCC(=O)O[C@@H](CO)COC(=O)CCCCCCC/C=C\CCCCCCCCC [DG 19:1_16:1_0:0] (ion (formula + adduct): [C38H70O5+NH4] 1+)
13 | 268.3 Å² | CCCCCCCC/C=C\CCCCCCCC(=O)O[C@@H](CO)COC(=O)CCCCCCC/C=C\CCCCCCCCC [DG 19:1_18:1_0:0] (ion (formula + adduct): [C40H74O5+NH4] 1+)

Same assay, conditions: sample type: Liver; ionization mode: positive; one isomer drawn

Row | Compound | TIMS collisional cross section
14 | CCCCCC/C=C\CCCCCCCC(=O)OC[C@H](CO)OC(=O)CCCCCCC/C=C\CCCCCCCC [DG 16:1_18:1_0:0] (ion (formula + adduct): [C37H68O5+NH4] 1+) | 260 Å²
15 | CCCCC/C=C\C/C=C\CCCCCCCC(=O)O[C@@H](CO)COC(=O)CCCCCCC/C=C\CCCCCC [DG 16:1_18:2_0:0] (ion (formula + adduct): [C37H66O5+NH4] 1+) | 253.1 Å²
16 | CCCCCCCC/C=C\CCCCCCCC(=O)O[C@@H](CO)COC(=O)CCCCCCCCCCCCCCCC [DG 17:0_18:1_0:0] (ion (formula + adduct): [C38H72O5+NH4] 1+) | 266 Å²
17 | CCCCC/C=C\C/C=C\CCCCCCCC(=O)O[C@@H](CO)COC(=O)CCCCCCCCCCCCCCCC [DG 17:0_18:2_0:0] (ion (formula + adduct): [C38H70O5+NH4] 1+) | 262.8 Å²
18 | CCCCCCCCCCCCCCCCCC(=O)OC[C@H](CO)OC(=O)CCCCCCCCCCCCCCC [DG 18:0_16:0_0:0] (ion (formula + adduct): [C37H72O5+NH4] 1+) | 265.6 Å²
19 | CCCCCCCC/C=C\CCCCCCCC(=O)O[C@@H](CO)COC(=O)CCCCCCCCCCCCCCCCC [DG 18:0_18:1_0:0] (ion (formula + adduct): [C39H74O5+NH4] 1+) | 269.6 Å²
20 | CCCCC/C=C\C/C=C\C/C=C\CCCCCCC(=O)O[C@@H](CO)COC(=O)CCCCCCCCCCCCCCCCC [DG 18:0_20:3_0:0] (ion (formula + adduct): [C41H74O5+NH4] 1+) | 271.8 Å²
21 | CCCCC/C=C\C/C=C\C/C=C\C/C=C\CCCC(=O)O[C@@H](CO)COC(=O)CCCCCCCCCCCCCCCCC [DG 18:0_20:4_0:0] (ion (formula + adduct): [C41H72O5+NH4] 1+) | 270.8 Å²

Further lines, results first:

Row | TIMS collisional cross section | Compound
22 | 262.85 ± 0.21 Å² | CCCCCC/C=C/CCCCCCCCCC(=O)OC[C@H](CO)OC(=O)CCCCCCCCCCCCCCC [DG 18:1_16:0_0:0] (ion (formula + adduct): [C37H70O5+NH4] 1+)
23 | 265.5 Å² | CCCCCCCC/C=C\CCCCCCCC(=O)OC[C@H](CO)OC(=O)CCCCCCC/C=C\CCCCCCCC [DG 18:1_18:1_0:0] (ion (formula + adduct): [C39H72O5+NH4] 1+)
24 | 261.3 Å² | CCCCC/C=C\C/C=C\CCCCCCCC(=O)O[C@@H](CO)COC(=O)CCCCCCC/C=C\CCCCCCCC [DG 18:1_18:2_0:0] (ion (formula + adduct): [C39H70O5+NH4] 1+)
25 | 271.8 Å² | CCCCCCCC/C=C\CCCCCCCCCC(=O)O[C@@H](CO)COC(=O)CCCCCCC/C=C\CCCCCCCC [DG 18:1_20:1_0:0] (ion (formula + adduct): [C41H76O5+NH4] 1+)
26 | 267 Å² | CCCCC/C=C\C/C=C\C/C=C\CCCCCCC(=O)O[C@@H](CO)COC(=O)CCCCCCC/C=C\CCCCCCCC [DG 18:1_20:3_0:0] (ion (formula + adduct): [C41H72O5+NH4] 1+)
27 | 266 Å² | CCCCC/C=C\C/C=C\C/C=C\C/C=C\CCCC(=O)O[C@@H](CO)COC(=O)CCCCCCC/C=C\CCCCCCCC [DG 18:1_20:4_0:0] (ion (formula + adduct): [C41H70O5+NH4] 1+)

Source: the supplement of paper PMC6965134
